Three molecules from PMC9003339 (2022) can be followed below.

For assay [1], the system named is ATP aptamer (screened, 32 nt, 5'FAM modified) (DNA, aptamer) TGGCGTCTGCATGCAGGTCGACGCATGCGCCG
Briefly: graphene oxide fluorescence recovery. Particulars: 5 mM KCl, 100 mM NaCl, 1 mM MgCl2, 50 mM Tris-HCl pH 7.4, 25 °C, aptamer 300 nM.

The subject of assay [2] is Classic ATP aptamer (DNA, aptamer) ACCTGGGGGAGTATTGCGGAGGAAGGT
The experiment in a line: graphene oxide fluorescence recovery. Particulars: 5 mM KCl, 100 mM NaCl, 1 mM MgCl2, 50 mM Tris-HCl pH 7.4, 25 °C, aptamer 300 nM.

Assay [3] has as its system Functional chimera sequence (DNA, aptamer) TGGCGTCTGCATGCAGGTCGACGCATGCGCCGCCTGAGCTTAGAT
Briefly: release from graphene oxide, PAGE. Particulars: 5 mM KCl, 100 mM NaCl, 1 mM MgCl2; 50 mM Tris-HCl pH 7.4, 25 °C; chimera 2 μM, ATP 1 mM.

The test system of assay [4] is FAM-labeled functional chimera sequence (DNA, aptamer) TGGCGTCTGCATGCAGGTCGACGCATGCGCCGCCTGAGCTTAGAT
The experiment in a line: fluorescence recovery from graphene oxide. Particulars: 5 mM KCl, 100 mM NaCl, 1 mM MgCl2; 50 mM Tris-HCl pH 7.4, 25 °C; chimera 2 μM, ATP 1 mM.

For assay [5], the system named is ATP aptamer (screened, 32 nt, 5'FAM modified) (DNA, aptamer) TGGCGTCTGCATGCAGGTCGACGCATGCGCCG
The experiment in a line: graphene oxide fluorescence assay, aptamer titrated at fixed ATP. Particulars: 5 mM KCl, 100 mM NaCl, 1 mM MgCl2, 50 mM Tris-HCl pH 7.4, 25 °C, aptamer 50–500 nM, 1 μL of 100 mM in 200 μL.

SMILES strings stand for the structures.

The Kd is the equilibrium constant for the complex coming apart. A lower Kd goes with a tighter complex.

For the molecule `Nc1ncnc2c1ncn2[C@@H]1O[C@H](COP(=O)(O)O)[C@@H](O)[C@H]1O`, the binding entry in assay [1] (1 μL of 100 mM AMP, ATP 4.7-fold higher) is recorded as “weak”; in assay [2] (1 μL of 100 mM AMP), “yes”.
Turning to `Nc1ncnc2c1ncn2[C@@H]1O[C@H](COP(=O)(O)OP(=O)(O)O)[C@@H](O)[C@H]1O`, the binding entry was “weak” in assay [1] (1 μL of 100 mM ADP, ATP 2.4-fold higher) and “yes” in assay [2] (1 μL of 100 mM ADP).
`Nc1ncnc2c1ncn2[C@@H]1O[C@H](COP(=O)(O)OP(=O)(O)OP(=O)(O)O)[C@@H](O)[C@H]1O`: the binding result in assay [3], in assay [2] (1 μL of 100 mM ATP) and in assay [4] was “yes” each time. The same molecule came in with an equilibrium dissociation constant (Kd) in assay [5] of 70.61 ± 20.91 nM.
